Data: patent US20210062177A1, “Alginate Lyase” (Ocean University of China, priority 2019, published 2021)
Like-named read-outs stand apart in the source and are kept apart here.

B1: ScCD6: novel PL-6 family alginate lyase from Streptomyces coelicolor A3(2), 493 amino acids, SEQ ID NO: 1 (protein)
chain: MNRPRLSTYAAITVAAITIAALTTAASALASTGDTSSRTPSGNSTPQANATIVNVSSSTQLTTAMANAVAGQTIVLANGSYSIGKLNAKNGTSSAPITIMAAQQGKAIITGGQLEVLSSSYVTFSGLKWTNSNTLKITSSHHIRLTRNHFRLTESSSLKWIIIQGANSHHNRIDHNLFEEKHQLGNFITIDGSSTQQSQYDLIDYNHFRNIGPRATNEMEAIRVGWSAISKSDGFTTVENNLFENCDGDPEIVSVKSNANTVRYNTFRTSQGSVSLRHGNRSQVHGNFFFGGGKTGTGGVRVYGQDHKIYNNHFEGLTGTGYDAALQLDGGDVDTSGALSSHWRVYRATAVHNTFVNNVSNIEIGANYSLAPVDSLVADNIVVGSSGKLFNELKMPKNMTYAGNIGWPTGSATIGITTGVRTVNPLLAKQGEVYRLGTGSPAVNTASGSYSFLADDMDGQSRSGTADVGADELSTGTVVHKPLNSADVGISAP
modifications: Streptomyces coelicolor

Key:
ScCD6 = assay: Effects of metal ions and chemical reagents on ScCD6 enzyme activity; assay type: biochemical, Streptomyces coelicolor A3(2); conditions: ScCD6 activity with metal ion/chemical reagent; for Relative enzyme activity %: control = 100.00
Method: (§1) Using 0.3% (w/v) sodium alginate as the substrate, in a 200 μL reaction system, after reaction for 20 min and boiling 2 min for inactivating, DNS method was used to determine the content of reducing sugar in the product to characterize the enzyme activity.
(§2) To determine the temperature stability, ScCD6 was incubated at 30° C., 40° C., 50° C. and 60° C., and its residual enzyme activity was determined by sampling at different times. When determining the stabilities of the enzyme under different pH, the enzyme was stored in buffer solution with pH 7.0, 8.0, 9.0 and 10.0 at 4° C., and the residual enzyme activity was determined by sampling at different times. […] In order to investigate the substrate specificity of ScCD6, sodium alginate, poly M and poly G were used as substrates and reacted at 40° C. for 20 min. The content of reducing sugar was determined by DNS method.

[1] = ScCD6 enzyme activity, reducing sugar by DNS method (optimum temperature and pH); assay type: biochemical
Method: as §1, §2

[2] = Method: as §1, §2
[3] = Substrate specificity of ScCD6 (DNS method); assay type: biochemical; conditions: sodium alginate, poly M, poly G; 40° C. for 20 min
Method: as §2

[4] = Product analysis of polysaccharide degradation by ScCD6 (HPLC); assay type: biochemical
Method: Further, the concentration of substrate (sodium alginate, poly M, poly G) in the reaction can be 0.3% (w/v). An amount of added enzyme can be 0.6 U. A reaction can be carried out at 30° C., pH 7.0 for 12 hours. The obtained products can be used for HPLC tests.
Using 0.3% (w/v) sodium alginate, poly M and poly G substrates, in a 200 μL reaction system, 0.6 U alginate lyase ScCD6 was added and reacted at 30° C. and pH 7.0 for 12 hours. The reaction product was boiled for 10 min and centrifuged at 10,000 rpm for 10 min to remove the proteins and other impurities in the system. The supernatant was collected and passed through a 0.22 μm filter membrane for HPLC test. The HPLC conditions were as follows: Superdex™ 30 Increase 30/100 Gel column, 0.2 M NH4HCO3 as mobile phase, flow rate of 0.4 mL/min, room temperature (˜25° C.), loading sample volume of 100 μL, UV detection at 235 nm.

Molecule | effect on the enzyme activity (ScCD6) | Relative enzyme activity % (ScCD6) [%] | other results
[Cu+2] [Cu^2+] | inhibit the enzyme activity | 86.33 | –
[Ni+2] [Ni^2+] | inhibit the enzyme activity | 85.86 | –
[Ba+2] [Ba^2+] | promote the enzyme activity | 108.96 | –
[Ca+2] [Ca^2+] | little effects on the enzyme activity | 101.76 | –
[Mg+2] [Mg^2+] | inhibit the enzyme activity | 91.64 | –
[Co+2] [Co^2+] | promote the enzyme activity | 106.89 | –
[Fe+3] [Fe^3+] | promote the enzyme activity | 110.41 | –
[K+] [K^+] | little effects on the enzyme activity | 98.28 | –
[Zn+2] [Zn^2+] | promote the enzyme activity | 109.04 | –
[Na+] [Na^+] | little effects on the enzyme activity | 101.15 | –
[Mn+2] [Mn^2+] | promote the enzyme activity | 110.91 | –
CCCCCCCCCCCCOS(=O)(=O)[O-].[Na+] [SDS] | inhibit the enzyme activity | 92.02 | –
O=C([O-])CN(CCN(CC(=O)[O-])CC(=O)O)CC(=O)O.[Na+].[Na+] [Na2EDTA] | lose the enzyme activity | 1.03 | –
B1 | – | – | optimum pH ([1]; 50° C., pH 3.0-10.0, 0.3% (w/v) sodium alginate): 9.0; optimum reaction temperature ([1]; pH 7.0, temperature range of 30-100° C., 0.3% (w/v) sodium alginate): 50 °C; enzyme activity retained ([2]; 4° C. for 4 days at pH 7.0-10.0): 80%; enzyme activity retained ([2]; 30° C. for 24 hours): 80%; substrate specificity [3]: poly M specific alginate lyase; degradation of polysaccharides ([4]; 0.3% (w/v) sodium alginate, poly M, poly G, 0.6 U, 30° C., pH 7.0, 12 hours, HPLC): could degrade all three kinds of polysaccharides; mode of digestion ([4]; HPLC product analysis): endo-type alginate lyase; polymerization degree of unsaturated oligosaccharide products ([4]; degradation of sodium alginate): 2-8; unsaturated disaccharides as share of the total unsaturated oligosaccharide products ([4]; degradation of sodium alginate): about 70%
